Laboratory results reported in PubChem BioAssay AID2060893 (Molecular Pharmacology Branch, DTP, NCI, 2025).
One block for each molecule: values may come before it.

System: K86415-001-R-J1-PDC complex spheroids, viability
Assay: Anticancer human tumor K86415-001-R-J1-PDC patient-derived lung adenocarcinoma cell line growth inhibition [RAS]
Details: for IC50: curve of first compound; for viability, T/C: stronger effect = lower value
Procedure, shortened: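 Agents were tested in combination matrices in half-log decrements from a top concentration at or near clinical Cmax (10 microM if undetermined). Targets were multi-cell spheroids of tumour lines plus HUVEC and MSC stromal cells.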

[1] = second compound 0.000949 µM, first compound 0.0316 µM
[2] = second compound 0.000949 µM, first compound 0.1 µM
[3] = second compound 0.000949 µM, first compound 0.316 µM
[4] = second compound 0.000949 µM, first compound 1 µM
[5] = second compound 0.003 µM, first compound 0.0316 µM
[6] = second compound 0.003 µM, first compound 0.1 µM
[7] = second compound 0.003 µM, first compound 0.316 µM
[8] = second compound 0.003 µM, first compound 1 µM
[9] = second compound 0.00949 µM, first compound 0.0316 µM
[10] = second compound 0.00949 µM, first compound 0.1 µM
[11] = second compound 0.00949 µM, first compound 0.316 µM
[12] = second compound 0.00949 µM, first compound 1 µM
[13] = second compound 0.03 µM, first compound 0.0316 µM
[14] = second compound 0.03 µM, first compound 0.1 µM
[15] = second compound 0.03 µM, first compound 0.316 µM
[16] = second compound 0.03 µM, first compound 1 µM
[17] = second compound 0.0949 µM, first compound 0.0316 µM
[18] = second compound 0.0949 µM, first compound 0.1 µM
[19] = second compound 0.0949 µM, first compound 0.316 µM
[20] = second compound 0.0949 µM, first compound 1 µM
[21] = second compound 0.3 µM, first compound 0.0316 µM
[22] = second compound 0.3 µM, first compound 0.1 µM
[23] = second compound 0.3 µM, first compound 0.316 µM
[24] = second compound 0.3 µM, first compound 1 µM
[25] = second compound 0.000949 µM, first compound 3.16 µM
[26] = second compound 0.000949 µM, first compound 10 µM
[27] = second compound 0.003 µM, first compound 3.16 µM
[28] = second compound 0.003 µM, first compound 10 µM
[29] = second compound 0.00949 µM, first compound 3.16 µM
[30] = second compound 0.00949 µM, first compound 10 µM
[31] = second compound 0.03 µM, first compound 3.16 µM
[32] = second compound 0.03 µM, first compound 10 µM
[33] = second compound 0.0949 µM, first compound 3.16 µM
[34] = second compound 0.0949 µM, first compound 10 µM
[35] = second compound 0.3 µM, first compound 3.16 µM
[36] = second compound 0.3 µM, first compound 10 µM
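Also: spheroids exposed to agents for seven days before readout.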

- IC50 (second compound 0.000949 µM): < 3.16 nM
- IC50 (second compound 0.003 µM): < 3.16 nM
- IC50 (second compound 0.00949 µM): < 3.16 nM
- IC50 (second compound 0.03 µM): < 3.16 nM
- IC50 (second compound 0.0949 µM): < 3.16 nM
- IC50 (second compound 0.3 µM): < 3.16 nM
SMILES: CCN1CCN(Cc2ccc(Nc3ncc(F)c(-c4cc(F)c5nc(C)n(C(C)C)c5c4)n3)nc2)CC1 + CCn1c(-c2cccnc2C(C)OC)c2c3cc(ccc31)N1CCOC(CC(NC(=O)C(C(C)C)N(C)C(=O)C3(F)CCN(C(=O)C#CC(C)(C)N(C)C)CC3)C(=O)N3CCCC(N3)C(=O)OCC(C)(C)C2)C1
- viability, T/C (second compound 0.000949 µM, first compound 0.00316 µM): 39.1%
- viability, T/C (second compound 0.000949 µM, first compound 0.01 µM): 31.2%
- viability, T/C [1]: 20%
- viability, T/C [2]: 30.3%
- viability, T/C [3]: 31.1%
- viability, T/C [4]: 20.5%
- viability, T/C (second compound 0.003 µM, first compound 0.00316 µM): 12.1%
- viability, T/C (second compound 0.003 µM, first compound 0.01 µM): 13.1%
- viability, T/C [5]: 12.2%
- viability, T/C [6]: 13.9%
- viability, T/C [7]: 16.7%
- viability, T/C [8]: 14.6%
- viability, T/C (second compound 0.00949 µM, first compound 0.00316 µM): 11.7%
- viability, T/C (second compound 0.00949 µM, first compound 0.01 µM): 12.4%
- viability, T/C [9]: 10.6%
- viability, T/C [10]: 11.8%
- viability, T/C [11]: 14.3%
- viability, T/C [12]: 19.3%
- viability, T/C (second compound 0.03 µM, first compound 0.00316 µM): 14%
- viability, T/C (second compound 0.03 µM, first compound 0.01 µM): 11.8%
- viability, T/C [13]: 11.1%
- viability, T/C [14]: 14%
- viability, T/C [15]: 14.5%
- viability, T/C [16]: 13.9%
- viability, T/C (second compound 0.0949 µM, first compound 0.00316 µM): 12.4%
- viability, T/C (second compound 0.0949 µM, first compound 0.01 µM): 14.8%
- viability, T/C [17]: 15.8%
- viability, T/C [18]: 14.8%
- viability, T/C [19]: 14.4%
- viability, T/C [20]: 13.8%
- viability, T/C (second compound 0.3 µM, first compound 0.00316 µM): 13.6%
- viability, T/C (second compound 0.3 µM, first compound 0.01 µM): 12%
- viability, T/C [21]: 11.1%
- viability, T/C [22]: 10.8%
- viability, T/C [23]: 9.64%
- viability, T/C [24]: 11.7%

- IC50 (second compound 0.000949 µM): < 31.6 nM
- IC50 (second compound 0.003 µM): < 31.6 nM
- IC50 (second compound 0.00949 µM): < 31.6 nM
- IC50 (second compound 0.03 µM): < 31.6 nM
- IC50 (second compound 0.0949 µM): < 31.6 nM
- IC50 (second compound 0.3 µM): < 31.6 nM
SMILES: Cc1nc(N2CCC3(CC2)COC(C)C3N)c(CO)nc1Sc1ccnc(N)c1Cl (stereo unspecified) + CCn1c(-c2cccnc2C(C)OC)c2c3cc(ccc31)N1CCOC(CC(NC(=O)C(C(C)C)N(C)C(=O)C3(F)CCN(C(=O)C#CC(C)(C)N(C)C)CC3)C(=O)N3CCCC(N3)C(=O)OCC(C)(C)C2)C1
- viability, T/C [1]: 29.3%
- viability, T/C [2]: 16.5%
- viability, T/C [3]: 7.93%
- viability, T/C [4]: 9.19%
- viability, T/C [25]: 6.66%
- viability, T/C [26]: 4.12%
- viability, T/C [5]: 8.24%
- viability, T/C [6]: 6.74%
- viability, T/C [7]: 5.5%
- viability, T/C [8]: 7.84%
- viability, T/C [27]: 3.89%
- viability, T/C [28]: 3.06%
- viability, T/C [9]: 7.59%
- viability, T/C [10]: 5.87%
- viability, T/C [11]: 5.22%
- viability, T/C [12]: 4.38%
- viability, T/C [29]: 3.17%
- viability, T/C [30]: 3.06%
- viability, T/C [13]: 10.5%
- viability, T/C [14]: 6.71%
- viability, T/C [15]: 5.16%
- viability, T/C [16]: 4.22%
- viability, T/C [31]: 3.35%
- viability, T/C [32]: 3.62%
- viability, T/C [17]: 9.27%
- viability, T/C [18]: 6.46%
- viability, T/C [19]: 4.18%
- viability, T/C [20]: 4.43%
- viability, T/C [33]: 3.06%
- viability, T/C [34]: 2.77%
- viability, T/C [21]: 8.31%
- viability, T/C [22]: 6.71%
- viability, T/C [23]: 5.12%
- viability, T/C [24]: 4.01%
- viability, T/C [35]: 3.5%
- viability, T/C [36]: 2.86%

- IC50 (second compound 0.000949 µM): < 31.6 nM
- IC50 (second compound 0.003 µM): < 31.6 nM
- IC50 (second compound 0.00949 µM): < 31.6 nM
- IC50 (second compound 0.03 µM): < 31.6 nM
- IC50 (second compound 0.0949 µM): < 31.6 nM
- IC50 (second compound 0.3 µM): < 31.6 nM
SMILES: NC1c2ccccc2OC12CCN(c1cnc3c(N4CCCc5ncccc54)n[nH]c3n1)CC2 (stereo unspecified) + CCn1c(-c2cccnc2C(C)OC)c2c3cc(ccc31)N1CCOC(CC(NC(=O)C(C(C)C)N(C)C(=O)C3(F)CCN(C(=O)C#CC(C)(C)N(C)C)CC3)C(=O)N3CCCC(N3)C(=O)OCC(C)(C)C2)C1
- viability, T/C [1]: 13.4%
- viability, T/C [2]: 8.22%
- viability, T/C [3]: 6.07%
- viability, T/C [4]: 6.52%
- viability, T/C [25]: 7.18%
- viability, T/C [26]: 5.23%
- viability, T/C [5]: 5.86%
- viability, T/C [6]: 4.35%
- viability, T/C [7]: 4.13%
- viability, T/C [8]: 4.19%
- viability, T/C [27]: 4.18%
- viability, T/C [28]: 3.63%
- viability, T/C [9]: 6.83%
- viability, T/C [10]: 4.56%
- viability, T/C [11]: 3.88%
- viability, T/C [12]: 3.79%
- viability, T/C [29]: 3.72%
- viability, T/C [30]: 4.04%
- viability, T/C [13]: 5.26%
- viability, T/C [14]: 5.42%
- viability, T/C [15]: 4.52%
- viability, T/C [16]: 3.97%
- viability, T/C [31]: 2.82%
- viability, T/C [32]: 3.8%
- viability, T/C [17]: 6.89%
- viability, T/C [18]: 5.55%
- viability, T/C [19]: 3.94%
- viability, T/C [20]: 3.94%
- viability, T/C [33]: 2.53%
- viability, T/C [34]: 3.05%
- viability, T/C [21]: 5.95%
- viability, T/C [22]: 4.18%
- viability, T/C [23]: 4.35%
- viability, T/C [24]: 2.49%
- viability, T/C [35]: 2.46%
- viability, T/C [36]: 2.39%
